From paper PMC12515563, “Kinetic, Spectral, and Structural Characterization of a Heme-Containing Peroxidase From the Skin of Cucurbita maxima” (Biochemistry Research International, 2025)

Biological target: T1, horseradish peroxidase (HRP) (Armoracia rusticana, UniProt P00433)
T1 construct: gene PRXC1A; commercial horseradish peroxidase
T1 sequence (P00433 31-338): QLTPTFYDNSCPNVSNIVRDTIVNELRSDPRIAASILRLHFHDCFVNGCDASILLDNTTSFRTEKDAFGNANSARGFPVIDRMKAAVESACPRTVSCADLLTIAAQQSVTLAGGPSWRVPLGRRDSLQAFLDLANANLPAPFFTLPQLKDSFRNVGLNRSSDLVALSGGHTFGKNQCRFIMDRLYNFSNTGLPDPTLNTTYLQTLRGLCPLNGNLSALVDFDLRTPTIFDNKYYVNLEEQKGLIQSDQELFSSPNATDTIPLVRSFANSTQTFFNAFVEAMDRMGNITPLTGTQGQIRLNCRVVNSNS
Assay: UV-vis absorption difference spectra (data not shown)
Format: binding

CC(=O)O [acetate]
UV-vis absorption difference spectra (data not shown): both HRP and PKS demonstrated similar effects with acetate in the current study (data not shown)
